Results as given in patent publication US6562335B1, “NK-1 receptor antagonists for prevention of neurogenic inflammation in gene therapy” (Pfizer, Inc., priority 1995, dated 2003).

Molecular target: T1, substance P (NK-1) receptor (Rattus norvegicus, UniProt P14600)
T1 construct: from tissue; host or cells: living Fischer F344 rats; read-out in trachea and main stem bronchi
Test: Capsaicin-induced Evans blue extravasation in airways of rats inoculated endotracheally with Ad5CMVLacZ
Assay type: in vivo
Conditions: Fischer F344 rats inoculated with Ad5CMVLacZ, 5 days after inoculation; pretreatment 4 mg/kg i.v., n=5; p>0.05 vs vector without pretreatment
Protocol: Pathogen-free Fischer F344 male rats (220-287 grams in weight, 12-14 weeks of age), under sodium pentobarotal anesthesia, received a localized endotracheal inoculation with 100 μL cf phosphate-buffered saline (PBS) containing 3×10^12 particles/mL of Ad5CMVLacZ, an adenovirus type 5 vector defective in the E1 and E3 regions of the viral genome and containing the LacZ transgene under the control of the CMV (cytomegalo virus) immediate early promoter. A control group of rats was inoculated with sterile PBS.
Five minutes after pretreatment, Evans blue dye (30 mg/kg i.v.) was injected into all the rats to measure the increase in vascular permeability associated with the neurogenic inflammation. Capsaicin (75 mg/kg i.v. over 2 min) was injected immediately after Evans blue to stimulate the sensory nerves in the airway mucosa. Five minutes after capsaicin, the rats were perfused through the heart with 100 mL of PBS. The trachea and main stem bronchi were removed and incubated in formamide (18 hours at 50° C.) to extract the extravasated tracer. The magnitude of the Evans blue extravasation was determined by spectrophotometric measurements of the optical density of formamide extracts.

T1 sequence (P14600 whole entry): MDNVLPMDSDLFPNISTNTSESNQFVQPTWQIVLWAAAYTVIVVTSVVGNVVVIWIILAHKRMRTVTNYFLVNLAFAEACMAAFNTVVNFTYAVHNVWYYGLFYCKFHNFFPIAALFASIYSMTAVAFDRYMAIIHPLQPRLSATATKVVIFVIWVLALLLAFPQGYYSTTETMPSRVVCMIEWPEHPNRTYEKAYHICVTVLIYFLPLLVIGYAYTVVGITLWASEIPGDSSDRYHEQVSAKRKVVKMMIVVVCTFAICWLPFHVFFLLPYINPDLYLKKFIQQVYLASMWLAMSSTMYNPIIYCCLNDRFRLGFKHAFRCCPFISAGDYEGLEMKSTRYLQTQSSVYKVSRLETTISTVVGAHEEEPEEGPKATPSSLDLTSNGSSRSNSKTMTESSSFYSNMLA

Compound: COc1ccccc1CN[C@@H]1CCCN[C@@H]1c1ccccc1 [compound B, (2R,3R)-2-phenyl-3-[(2-methoxyphenyl)methylamino]piperidine]
- extravasation of Evans blue produced by capsaicin (trachea and main stem bronchi), mean ±SEM: 88.3 ± 5.8 ng/mg
